pIC50: −log10 of the molar value. Positions of bridges follow the written chain, without caps; N, C: chain ends. Non-standard residues stand in square brackets, D forms with d. Residues, ends and D or L forms follow the SMILES beside them. *: point of attachment. FITC = O=C1OC2(c3ccc(O)cc3Oc3cc(O)ccc32)c2ccc(NC(=S)*)cc21; R8 = C=CCCCCCC[C@@](C)(N)C(=O)O; S5 = C=CCCC[C@](C)(N)C(=O)O; AEEA = NCCOCCOCC(=O)O
Tests used:
ss-RNA miR-21 3´ = test: EMSA with single-stranded RNA; assay type: binding; conditions: fluorescein-labeled peptide 3 μM, oligonucleotide 9 μM
[1] = tested on: yeast transfer RNAs (t-RNAs); test: EMSA with transfer RNA; assay type: binding, baker's yeast; conditions: fluorescein-labeled peptide 3 μM, t-RNA 9 μM
Experimental: Electrophoretic mobility shift assays (EMSAs) were performed using a Bio-Rad Mini-Protean gel system paired with a direct current (DC) power source (PowerPac™ HC, Bio-Rad). Typically, 6 μl solutions containing ds RNA (c = 3 μM) and fluorescein-labeled peptide (c = 6 μM) were incubated in binding buffer (10 mM Tris (pH 8.0), 0.5 mM EDTA, 12.5% glycerol and 150 mM KCl) at 4°C for 1 h. After incubation, bound RNA was resolved from peptide-free RNA using 10% non-denaturing polyacrylamide gels at 120 V in running buffer (25 mM Tris (pH 8.0), 200 mM glycine, 20 mM NaCl) at 4°C for 1 h. Visualization of fluorescent gel-bound species was conducted using a Typhoon Trio + fluorescence scanner (GE Healthcare Life Sciences). For nucleic acid visualization, gels were stained using 2 μl of SYBR™ gold nucleic acid gel dye (Molecular Probes) in 20 ml of TAE buffer (40 mM Tris, 1 mM EDTA, 20 mM acetic acid) for 45 min at RT before being visualized using a FluorChem™ gel documentation system (Alpha Innotech). To assess B3 binding to different ds RNA sequences (Supplementary Figure S20), 6 μl solutions containing hairpin RNA (c = 1 μM) and fluorescein-labeled B3 (c = 2 μM) were incubated in binding buffer (TAE and 10% glycerol) at RT for 1 h, and then resolved using 15% non-denaturing polyacrylamide gels (acrylamide/bis-acrylamide (19:1) in TAE) at 150 V in running buffer (TAE) at 4°C for 1.5 h. […]

endogenous miR-21 = test: Pull-down of miR-21 from K562 cells; assay type: cell-based, human; conditions: biotinylated peptide 10 μM, streptavidin beads, qRT-PCR, triplicate
Experimental: 2 × 10^6 K562 cells were incubated with N-terminally biotinylated peptides (c(peptide) = 10 μM, t = 2.5 h) for uptake on a rotating wheel at 37°C. The cells were extensively washed in PBS and lysed in lysis buffer (25 mM HEPES, pH 7.5, 150 mM NaCl, 0.05% IGEPAL CA-630, 1 mM EDTA) supplemented with 0.5 U/μl RNAse inhibitor (Superase-in, ThermoFisher). The lysate was cleared by centrifugation at 21 000 g at 4°C, an aliquot of the supernatant was removed and re-suspended in Trizol, while the remaining was incubated with streptavidin-coupled magnetic beads (Dynabeads M280, ThermoFisher) on a rotating wheel (2 h, 4°C). After magnetic separation and washing (3× in lysis buffer), the beads were re-suspended in 20 μl lysis buffer, re-suspended in Trizol (ThermoFisher), and 400 ng t-RNA was added per sample as a carrier. RNA was extracted from Trizol using the standard protocol and the qRT-PCR was performed according to a previously published protocol ([62]) using the primers h-miR21-3p-FW ([…]), h-miR21-3p-RV ([…]), h-miR21-5p-FW ([…]), h-miR21-5p-RV ([…]) in a CFX96 real-time machine (Bio-Rad). The relative enrichment was calculated as a ratio of copies in the immunoprecipitate over input normalized to the enrichment of the control peptide D1.

[2] = tested on: Dicer processing of pre-miR-21; test: Dicer cleavage assay of pre-miR-21; assay type: biochemical; conditions: pre-miR-21 40 nM; for inhibition of pre-miR-21 maturation by Dicer (in words): Dicer 4 U·ml^−1, peptide 10–600 nM
Experimental: Next, RhDicer (0.5 U·μl^−1 solution; Genlantis) was diluted in buffer (20 mM Tris·HCl, pH 6.8, 100 mM NaCl, 1 mM MgCl2, 1 mM DTT, 5 mM β-mercaptoethanol, 10% glycerol, 0.1% Triton-X 100) to a concentration of 40 U·ml^−1 and then added to the peptide/RNA solutions (final RhDicer concentration: 4 U·ml^−1). The reaction solution was incubated for 150 min at 37°C, then denatured for 5 min at 70°C, and stored at 4°C. Subsequently, a 1:10 dilution in H2O of the reaction solution was performed and added to a Poly(A) Tailing and reverse transcription solution as previously reported ([62]). The samples were incubated at 42°C for 1 h before subsequent inactivation for 5 min at 95°C and cooling to 4°C. Next, qRT-PCR of each sample was performed using the primers miR21–5p–RV1 ([…]), miR21-5p-FW1 ([…]), and miRNA-RT1 ([…]) in a StepOnePlus™ real-time PCR system (Thermo Fisher Scientific). Briefly, 1 μl of template DNA solution was added to a solution of Luna® Universal Probe qPCR Master Mix (New England Biolabs) with a final primer concentration of 125 nM in 20 μl per sample. Samples were initially denatured for 5 min at 95°C followed by 45 temperature cycles of 15 s at 95°C and 30 s at 66°C. The quantification was done using miR-21-5p standard curves. To visualize the inhibitory potential of each peptide the normalized abundance of mature miR-21 (%) is plotted against the peptide concentration (nM).

Row | SMILES | binding to single-stranded RNA in EMSA (ss-RNA miR-21 3´) | binding to yeast t-RNA mixture in EMSA [1] | enrichment of miR-21 relative to control peptide D1 (endogenous miR-21) | inhibition of pre-miR-21 maturation by Dicer (in words) [2] | pIC50 ([2]; recombinant Dicer 4 U·ml^−1, 150 min, 37°C, N-terminally acetylated peptide, qRT-PCR of miR-21, triplicate, read-out: Half-maximal Dicer inhibition)
1 | CC(C)C[C@H](NC(=O)[C@]1(C)CCCC=CCCC[C@](C)(NC(=O)[C@H](CCC(=O)O)NC(=O)[C@H](CO)NC(=O)[C@@H]2CCCN2C(=O)[C@H](CO)NC(=O)[C@H](CCCCN)NC(=O)[C@H](Cc2c[nH]cn2)NC(=O)CNC(=O)[C@H](CCCNC(=N)N)NC(=O)[C@]2(C)CCCC=CCCC[C@](C)(NC(=O)[C@H](CCCCN)NC(=O)[C@H](Cc3c[nH]cn3)NC(=O)[C@H](CCCNC(=N)N)NC(=O)[C@H](CCCCN)NC(=O)[C@H](CCCNC(=N)N)NC(=O)[C@H](CCC(N)=O)NC(=O)[C@H](C)NC(=O)[C@H](CCC(N)=O)NC(=O)[C@H](CCCCN)NC(=O)[C@H](CCCCN)NC(=O)COCCOCCNC(=S)Nc3ccc4c(c3)C(=O)OC43c4ccc(O)cc4Oc4cc(O)ccc43)C(=O)N[C@@H](CC(N)=O)C(=O)N[C@@H](CCCNC(=N)N)C(=O)N[C@@H](CCCCN)C(=O)N2)C(=O)N[C@@H](CCCNC(=N)N)C(=O)N[C@@H](CCCNC(=N)N)C(=O)N[C@@H](CO)C(=O)N1)C(=O)N[C@@H](Cc1c[nH]c2ccccc12)C(=O)N[C@@H](Cc1c[nH]cn1)C(=O)N[C@@H](C)C(=O)N[C@@H](CCCNC(=N)N)C(N)=O [B3] ({FITC-AEEA}-KKQAQRKRHK[S5]NRK[S5]RGHKSPSE[S5]RRS[S5]LWHAR-NH2; staple 11-15, 24-28) | did not bind | did not observe binding | 35 fold | inhibited in a concentration-dependent manner | ~7.30
2 | CC(C)C[C@@H]1NC(=O)[C@@](C)(NC(=O)[C@H](CO)NC(=O)[C@H](CCCNC(=N)N)NC(=O)[C@H](CCCNC(=N)N)NC(=O)[C@H](CCC(N)=O)NC(=O)[C@H](CCC(=O)O)NC(=O)[C@H](CO)NC(=O)[C@@H]2CCCN2C(=O)[C@H](CO)NC(=O)[C@H](CCCCN)NC(=O)[C@H](Cc2c[nH]cn2)NC(=O)CNC(=O)[C@H](CCCNC(=N)N)NC(=O)[C@H](CCC(=O)O)NC(=O)[C@H](CCCCN)NC(=O)[C@H](CCCNC(=N)N)NC(=O)[C@H](CC(N)=O)NC(=O)[C@]2(C)CCCC=CCCCCCC[C@@](C)(NC(=O)[C@H](CCC(N)=O)NC(=O)[C@H](CCCCN)NC(=O)[C@H](CCCCN)NC(=O)COCCOCCNC(=S)Nc3ccc4c(c3)C(=O)OC43c4ccc(O)cc4Oc4cc(O)ccc43)C(=O)N[C@@H](CCC(N)=O)C(=O)N[C@@H](CCCNC(=N)N)C(=O)N[C@@H](CCCCN)C(=O)N[C@@H](CCCNC(=N)N)C(=O)N[C@@H](Cc3c[nH]cn3)C(=O)N[C@@H](CCCCN)C(=O)N2)CCCC=CCCC[C@@](C)(C(=O)N[C@@H](CCCNC(=N)N)C(N)=O)NC(=O)[C@H](Cc2c[nH]cn2)NC(=O)[C@H](Cc2c[nH]c3ccccc23)NC1=O [C1] ({FITC-AEEA}-KKQ[R8]QRKRHK[S5]NRKERGHKSPSEQRRS[S5]LWH[S5]R-NH2; staple 4-11, 28-32) | did not bind | did not observe binding | enrichment | – | –
3 | CC(C)C[C@@H]1NC(=O)[C@H](CCC(=O)O)NC(=O)[C@H](CO)NC(=O)[C@@](C)(NC(=O)[C@H](CCCNC(=N)N)NC(=O)[C@H](CCC(N)=O)NC(=O)[C@H](CCC(=O)O)NC(=O)[C@H](CO)NC(=O)[C@@H]2CCCN2C(=O)[C@H](CO)NC(=O)[C@H](CCCCN)NC(=O)[C@H](Cc2c[nH]cn2)NC(=O)[C@]2(C)CCCC=CCCCCCC[C@@](C)(NC(=O)[C@H](Cc3c[nH]cn3)NC(=O)[C@H](CCCNC(=N)N)NC(=O)[C@H](CCCCN)NC(=O)[C@H](CCCNC(=N)N)NC(=O)[C@H](CCC(N)=O)NC(=O)[C@H](C)NC(=O)[C@H](CCC(N)=O)NC(=O)[C@H](CCCCN)NC(=O)[C@H](CCCCN)NC(=O)COCCOCCNC(=S)Nc3ccc4c(c3)C(=O)OC43c4ccc(O)cc4Oc4cc(O)ccc43)C(=O)N[C@@H](CC(C)C)C(=O)N[C@@H](CC(N)=O)C(=O)N[C@@H](CCCNC(=N)N)C(=O)N[C@@H](CCCCN)C(=O)N[C@@H](CCC(=O)O)C(=O)N[C@@H](CCCNC(=N)N)C(=O)N2)CCCC=CCCC[C@@](C)(C(=O)N[C@@H](Cc2c[nH]cn2)C(=O)N[C@@H](C)C(=O)N[C@@H](CCCNC(=N)N)C(N)=O)NC1=O [D1] ({FITC-AEEA}-KKQAQRKRH[R8]LNRKER[S5]HKSPSEQR[S5]SEL[S5]HAR-NH2; staple 10-17, 26-30) | – | – | – | showed only small effects | –

— paper PMC8682738, “Constrained peptides mimic a viral suppressor of RNA silencing” (Nucleic Acids Research, 2021)
